Columns and labels:
[1] = test system: extracellular brain glutamate level; test: Brain microdialysis, extracellular cerebral glutamate levels in TBI patients; format: in vivo, human
Experimental: To monitor the metabolic condition of the patients, extracellular brain glutamate and lactate levels were measured. In more detail, the extracellular intracerebral glutamate and lactate levels measured here is the glutamate or lactate level in brain extracellular fluid (ECF). […] The measurements of the glutamate and lactate levels was carried out using established brain microdialysis (MD) methodology as described, for example, by Chamoun et al, example. Role of extracellular glutamate measured by cerebral microdialysis in severe traumatic brain injury. J Neurosurg. 2010 September; 113(3): 564-570.
The microdialysis (MD) equipment was obtained from M Dialysis AB, Stockholm, Sweden, see www.mdialysis.com. The following equipment was used. • Cerebral MD catheters: CMA 70 • CMA 70 bolt catheter • CMA 71 high cut-off cerebral catheter • Pumps: CMA106=fixed flow rate, CMA107=flexible flow rate • Perfusion solution: Cerebral: Perfusion fluid CNS • Analyzers: CMA 600, ISCUS, ISCUSflex Time Point of MD Catheter Insertion • Aim: Obtain stable baseline values before infusing study drug • Ideal: By 14 hours after TBI or 4 hours before study drug infusion to allow for tissue adaptation, usually lasting 1-4 hours • Compromise: As soon as possible, within 4 hours after beginning study drug infusion Site of Cerebral MD Catheter Insertion • Aim: Monitor metabolic changes close to structural damage visible on routine CT scan • Contusion: Close to the contusion • Mixed lesions: Predominantly injured hemisphere • With bolt system: Right or left frontal lobe • Without bolt system: Right or left frontal/temporal/parietal area • If possible cerebral MD catheter should be placed ipsilateral to the ICP probe • Special care should be taken to avoid inducing injury to pre- and postcentral cortex • The position of the MD probe and the position of the ICP probe in the eCRF should be indicated.
The cerebral glutamate and lactate levels were recorded every 1 h up to 5 days after the start of the infusion. Absolute values were be summarized per treatment group and for each time point by means of descriptive statistics. The 95% confidence intervals for the mean were calculated (normal approximation).
For the analysis of the metabolic state, it was considered that under normal (physiological) conditions glutamate is maintained at low levels (micromolar) in the extracellular space (<2 μmol/L) and in plasma (50-100 μmol/L) to avoid excessive glutamate receptor activation. Within the different intracellular compartments glutamate is present in higher amounts (5-15 millimolar). In brain microdialysis, glutamate levels exceeding 10 μmol/L are considered elevated, higher glutamate levels are associated with worse outcome. In addition to the absolute levels, dynamic changes are also important in interpreting underlying pathology. In brain microdialysis and blood, lactate levels exceeding 2.5 millimol/L are considered pathologically elevated, reflecting insufficient metabolic/energetic stability which is further aggravated by insufficient oxygen supply.

[2] = test system: patients with acute moderate and severe TBI; test: NOSTRA III phase III trial, clinical outcome (eGOS, therapy intensity level) in TBI patients; format: in vivo, human; conditions: for proportion of low TIL levels (3-10 points): patients of 18-39 years; for eGOS median at 6 months: placebo 5
Experimental: Based on the results of the earlier phase II study, the NOSTRA III (NO Synthase in TRAumatic Brain Injury) phase III trial was designed to detect clinically relevant differences in clinical outcome (Extended Glasgow Outcome Score at 6 months after injury) as primary endpoint. In addition, the extracellular intracerebral glutamate levels and lactate levels of these TBI patients were also determined in an exploratory approach to monitor the metabolic state of the patients.
Trials. 2020. A total of 224 evaluable patients with moderate and severe TBI were enrolled in 32 centres in Austria, France, Germany, Spain, and United Kingdom. The trial started on 24 Aug. 2016 with last-patient last-visit on 17 Jun. 2020.
Patients between 18 and 60 years of age with Glasgow Coma Score ≥3 requiring intracranial pressure (ICP) monitoring were enrolled. Other inclusion criteria were TBI within the last 18 hours but at least 6 hours after the injury, which were expected to survive more than 24 hours after admission.
The eGOS was determined by a face to face meeting by trained assessors.
The null-hypothesis of no shift across the 8 ordered categories of eGOS for the two treatment groups was tested after six months based on a proportional odds model stratified by age (18-39 years and 40-60 years). […] Treatment and age (18-39 years and 40-60 years) were included in the model. The proportional odds assumption was tested using a Chi-Square Score Test.
The main objective of the post hoc analyses was to estimate the effect size of VAS203 compared with placebo for the primary endpoint eGOS-I (eGOS-Interview) in the subgroups time to infusion ≤12 hours and >12 hours. Supportive analyses were conducted by age group (<40 years, ≥40 years) because age group was used as a stratification factor in the study. Comparability between treatment groups regarding demographics as well as severity and location of disease was investigated using similar methods as in the main CSR.
The proportions of patients per eGOS-I level at 3 months and at 6 months were calculated. For the change in eGOS-I over time, the proportion of patients with changes from 3 to 6 months were calculated by eGOS-I level, and in addition categorised as decreased (i.e. any decrease in eGOS-I level from 3 to 6 months), unchanged (i.e. no change in eGOS-I level from 3 to 6 months), and increased (i.e. any increase in eGOS-I level from 3 to 6 months).
Ordinal logistic regression was used for the analysis of eGOS-I at 3 months and at 6 months, including treatment group and age group (<40 years, ≥40 years) as factors in the model. Estimated odds ratios for the comparison of the VAS203 and placebo groups of >1 mean that eGOS-I was higher in the VAS203 group than in the placebo group across the 8 levels, whereas odds ratios of <1 mean that eGOS-I was lower in the VAS203 group than in the placebo group. Odds ratios together with their 95% CIs were used to estimate and assess the size of the treatment effect of VAS203 compared to placebo. Proportional […] were assumed as valid for all these analyses because ordinal logistic regression analysis is known to be robust against deviations from this assumption; also, the power of assumption checking would be low for small subgroups.
Based on the time-dependent activation of pathologic cascades during the early phase after TBI and the benefits observed with an infusion of VAS203 during the initial 12 hours after TBI in the Phase IIa trial [Stover], a post-hoc-analysis was performed to determine whether patients in whom VAS203 was infused ≤12 hours after TBI, show better clinical improvement compared to patients in whom infusion was started >12 hours after TBI.

In the case of C[C@H](O)[C@H](O)C1CNc2nc(N)nc(N)c2N1 (mixture of isomers) [Ronopterin, 4-Amino-(6R,S)-5,6,7,8-tetrahydro-L-biopterin], the “extracellular cerebral glutamate level” value ([1]; 18 to 39 years, infusion >12 hours after TBI, majority of patients, essentially the same as placebo (FIG. 5E)) is reported as < 10 µmol/L, the “extracellular cerebral glutamate level” value ([1]; 18 to 39 years, infusion ≤12 h after TBI, all patients (FIG. 5B)) is reported as < 10 µmol/L and the “extracellular cerebral glutamate level” value ([1]; 40 to 60 years, infusion >12 hours after TBI, majority of the patients (FIG. 6B)) is reported as < 10 µmol/L. For the same molecule, the “extracellular cerebral glutamate level” value ([1]; 40 to 60 years, infusion ≤12 h after TBI, no placebo group, not all patients <10 μmol/L (FIG. 6A)) was “partially lowered brain glutamate levels”, the “extracellular brain glutamate levels after infusion” value ([1]; TBI patients, within 12 hours after start of the administration) was “less than 10 μmol/L” and the “passage of the human blood brain barrier” value ([1]; inferred from Example 4) was “passes the human blood brain barrier”. The “extracellular cerebral glutamate level” value ([1]; patients aged 18 to 39 years, all times to infusion, all patients, up to 108 hours (FIG. 4B)) was < 10 µmol/L, the “extracellular cerebral glutamate level” value ([1]; patients aged 40 to 60 years, all times to infusion, majority of patients (FIG. 4E)) was < 10 µmol/L and the “proportion of patients with Good Recovery” value ([2]; 18-39 years, late infusion >12 hours, placebo 38%) was 30%. For the same molecule, the “proportion of patients with Good Recovery” value ([2]; 40-60 years, late infusion >12 hours, placebo 19%) was 20%, the “proportion of patients with Good Recovery” value ([2]; patients aged 18-39 years, early infusion ≤12 hours, placebo 32%) was 45% and the “proportion of patients with Good Recovery” value ([2]; patients aged 40-60 years, early infusion, placebo 8%) was 27%. The “proportion of low TIL levels (3-10 points)” value ([2]; second week after TBI, placebo 64%, p=0.0002) was 81%, the “proportion of low TIL levels (3-10 points)” value ([2]; placebo 62%, p=0.01) was 71% and the “NNT for Good Recovery” value ([2]; time to infusion <12 hours) was 8. The “increase of proportion of patients with a Good Recovery at 6 months compared to the Placebo group” value ([2]; time to infusion <12 hours) was 61%, the “proportion of patients with Good Recovery (eGOS 7 and 8)” value ([2]; time to infusion <12 hours, placebo 23%, ns) was 37% and the “eGOS median at 6 months” value ([2]; time to infusion >12 hours) was 5. The “proportion of patients with Good Recovery at 6 months” value ([2]; time to infusion >12 hours, placebo 28%) was 25%, the “eGOS median at 6 months” value ([2]; time to infusion ≤12 hours, not significant) was 6 and the “overall eGOS-I rating at 6 months vs placebo (primary efficacy endpoint)” value ([2]; total dose 17 mg/kg infused for 48 hours, ordinal logistic regression) was “No difference”.

From patent publication US12465609B2, “Methods of treating patients suffering from a disease condition or disorder that is associated with an increased glutamate level” (veriNOS operations GmbH, priority 2022, dated 2025)
